Reference: article PMC8019157 (Antiviral research, 2021)
Like-named read-outs stand apart in the source and are kept apart here.

Key:
[1] = cited from earlier work; for Cmax: read-out: plasma Cmax
SERCA1 [2] = biological target: T1, SERCA1 (Oryctolagus cuniculus, UniProt P04191); assay: SERCA1 ATPase activity; format: biochemical, rabbit
RyR1 = RyR1 (Oryctolagus cuniculus, UniProt P11716); assay: Lipid bilayer single channel recordings of purified RyR1; format: biochemical, rabbit
[3] = Drug dissolved in ethanol/water; format: physicochemical; conditions: room temperature (22 °C), HPLC
SERCA1 [4] = biological target: T1, SERCA1; assay: ATP-dependent ^45Ca^2+ accumulation by longitudinal SR vesicles; format: biochemical, rabbit; conditions: for effect on ATP-dependent Ca^2+ transport by SERCA1: 0 – 31.2 μM, 20 min at 37°C
[5] = biological target: rabbit skeletal muscle ryanodine receptor Ca^2+ release channel (RyR1) (Oryctolagus cuniculus, UniProt P11716); assay: [^3H]ryanodine binding/displacement assay with SR membrane vesicles; conditions: for maximum percent enhancement of [^3H]ryanodine binding over control: 6.7 nM [^3H]ryanodine; for maximum percent enhancement of [^3H]ryanodine binding over control / concentrations that enhanced [^3H]ryanodine binding to RyR1: 2 hr at 37°C
Sequence of rabbit skeletal muscle ryanodine receptor Ca^2+ release channel (RyR1) (P11716 whole entry): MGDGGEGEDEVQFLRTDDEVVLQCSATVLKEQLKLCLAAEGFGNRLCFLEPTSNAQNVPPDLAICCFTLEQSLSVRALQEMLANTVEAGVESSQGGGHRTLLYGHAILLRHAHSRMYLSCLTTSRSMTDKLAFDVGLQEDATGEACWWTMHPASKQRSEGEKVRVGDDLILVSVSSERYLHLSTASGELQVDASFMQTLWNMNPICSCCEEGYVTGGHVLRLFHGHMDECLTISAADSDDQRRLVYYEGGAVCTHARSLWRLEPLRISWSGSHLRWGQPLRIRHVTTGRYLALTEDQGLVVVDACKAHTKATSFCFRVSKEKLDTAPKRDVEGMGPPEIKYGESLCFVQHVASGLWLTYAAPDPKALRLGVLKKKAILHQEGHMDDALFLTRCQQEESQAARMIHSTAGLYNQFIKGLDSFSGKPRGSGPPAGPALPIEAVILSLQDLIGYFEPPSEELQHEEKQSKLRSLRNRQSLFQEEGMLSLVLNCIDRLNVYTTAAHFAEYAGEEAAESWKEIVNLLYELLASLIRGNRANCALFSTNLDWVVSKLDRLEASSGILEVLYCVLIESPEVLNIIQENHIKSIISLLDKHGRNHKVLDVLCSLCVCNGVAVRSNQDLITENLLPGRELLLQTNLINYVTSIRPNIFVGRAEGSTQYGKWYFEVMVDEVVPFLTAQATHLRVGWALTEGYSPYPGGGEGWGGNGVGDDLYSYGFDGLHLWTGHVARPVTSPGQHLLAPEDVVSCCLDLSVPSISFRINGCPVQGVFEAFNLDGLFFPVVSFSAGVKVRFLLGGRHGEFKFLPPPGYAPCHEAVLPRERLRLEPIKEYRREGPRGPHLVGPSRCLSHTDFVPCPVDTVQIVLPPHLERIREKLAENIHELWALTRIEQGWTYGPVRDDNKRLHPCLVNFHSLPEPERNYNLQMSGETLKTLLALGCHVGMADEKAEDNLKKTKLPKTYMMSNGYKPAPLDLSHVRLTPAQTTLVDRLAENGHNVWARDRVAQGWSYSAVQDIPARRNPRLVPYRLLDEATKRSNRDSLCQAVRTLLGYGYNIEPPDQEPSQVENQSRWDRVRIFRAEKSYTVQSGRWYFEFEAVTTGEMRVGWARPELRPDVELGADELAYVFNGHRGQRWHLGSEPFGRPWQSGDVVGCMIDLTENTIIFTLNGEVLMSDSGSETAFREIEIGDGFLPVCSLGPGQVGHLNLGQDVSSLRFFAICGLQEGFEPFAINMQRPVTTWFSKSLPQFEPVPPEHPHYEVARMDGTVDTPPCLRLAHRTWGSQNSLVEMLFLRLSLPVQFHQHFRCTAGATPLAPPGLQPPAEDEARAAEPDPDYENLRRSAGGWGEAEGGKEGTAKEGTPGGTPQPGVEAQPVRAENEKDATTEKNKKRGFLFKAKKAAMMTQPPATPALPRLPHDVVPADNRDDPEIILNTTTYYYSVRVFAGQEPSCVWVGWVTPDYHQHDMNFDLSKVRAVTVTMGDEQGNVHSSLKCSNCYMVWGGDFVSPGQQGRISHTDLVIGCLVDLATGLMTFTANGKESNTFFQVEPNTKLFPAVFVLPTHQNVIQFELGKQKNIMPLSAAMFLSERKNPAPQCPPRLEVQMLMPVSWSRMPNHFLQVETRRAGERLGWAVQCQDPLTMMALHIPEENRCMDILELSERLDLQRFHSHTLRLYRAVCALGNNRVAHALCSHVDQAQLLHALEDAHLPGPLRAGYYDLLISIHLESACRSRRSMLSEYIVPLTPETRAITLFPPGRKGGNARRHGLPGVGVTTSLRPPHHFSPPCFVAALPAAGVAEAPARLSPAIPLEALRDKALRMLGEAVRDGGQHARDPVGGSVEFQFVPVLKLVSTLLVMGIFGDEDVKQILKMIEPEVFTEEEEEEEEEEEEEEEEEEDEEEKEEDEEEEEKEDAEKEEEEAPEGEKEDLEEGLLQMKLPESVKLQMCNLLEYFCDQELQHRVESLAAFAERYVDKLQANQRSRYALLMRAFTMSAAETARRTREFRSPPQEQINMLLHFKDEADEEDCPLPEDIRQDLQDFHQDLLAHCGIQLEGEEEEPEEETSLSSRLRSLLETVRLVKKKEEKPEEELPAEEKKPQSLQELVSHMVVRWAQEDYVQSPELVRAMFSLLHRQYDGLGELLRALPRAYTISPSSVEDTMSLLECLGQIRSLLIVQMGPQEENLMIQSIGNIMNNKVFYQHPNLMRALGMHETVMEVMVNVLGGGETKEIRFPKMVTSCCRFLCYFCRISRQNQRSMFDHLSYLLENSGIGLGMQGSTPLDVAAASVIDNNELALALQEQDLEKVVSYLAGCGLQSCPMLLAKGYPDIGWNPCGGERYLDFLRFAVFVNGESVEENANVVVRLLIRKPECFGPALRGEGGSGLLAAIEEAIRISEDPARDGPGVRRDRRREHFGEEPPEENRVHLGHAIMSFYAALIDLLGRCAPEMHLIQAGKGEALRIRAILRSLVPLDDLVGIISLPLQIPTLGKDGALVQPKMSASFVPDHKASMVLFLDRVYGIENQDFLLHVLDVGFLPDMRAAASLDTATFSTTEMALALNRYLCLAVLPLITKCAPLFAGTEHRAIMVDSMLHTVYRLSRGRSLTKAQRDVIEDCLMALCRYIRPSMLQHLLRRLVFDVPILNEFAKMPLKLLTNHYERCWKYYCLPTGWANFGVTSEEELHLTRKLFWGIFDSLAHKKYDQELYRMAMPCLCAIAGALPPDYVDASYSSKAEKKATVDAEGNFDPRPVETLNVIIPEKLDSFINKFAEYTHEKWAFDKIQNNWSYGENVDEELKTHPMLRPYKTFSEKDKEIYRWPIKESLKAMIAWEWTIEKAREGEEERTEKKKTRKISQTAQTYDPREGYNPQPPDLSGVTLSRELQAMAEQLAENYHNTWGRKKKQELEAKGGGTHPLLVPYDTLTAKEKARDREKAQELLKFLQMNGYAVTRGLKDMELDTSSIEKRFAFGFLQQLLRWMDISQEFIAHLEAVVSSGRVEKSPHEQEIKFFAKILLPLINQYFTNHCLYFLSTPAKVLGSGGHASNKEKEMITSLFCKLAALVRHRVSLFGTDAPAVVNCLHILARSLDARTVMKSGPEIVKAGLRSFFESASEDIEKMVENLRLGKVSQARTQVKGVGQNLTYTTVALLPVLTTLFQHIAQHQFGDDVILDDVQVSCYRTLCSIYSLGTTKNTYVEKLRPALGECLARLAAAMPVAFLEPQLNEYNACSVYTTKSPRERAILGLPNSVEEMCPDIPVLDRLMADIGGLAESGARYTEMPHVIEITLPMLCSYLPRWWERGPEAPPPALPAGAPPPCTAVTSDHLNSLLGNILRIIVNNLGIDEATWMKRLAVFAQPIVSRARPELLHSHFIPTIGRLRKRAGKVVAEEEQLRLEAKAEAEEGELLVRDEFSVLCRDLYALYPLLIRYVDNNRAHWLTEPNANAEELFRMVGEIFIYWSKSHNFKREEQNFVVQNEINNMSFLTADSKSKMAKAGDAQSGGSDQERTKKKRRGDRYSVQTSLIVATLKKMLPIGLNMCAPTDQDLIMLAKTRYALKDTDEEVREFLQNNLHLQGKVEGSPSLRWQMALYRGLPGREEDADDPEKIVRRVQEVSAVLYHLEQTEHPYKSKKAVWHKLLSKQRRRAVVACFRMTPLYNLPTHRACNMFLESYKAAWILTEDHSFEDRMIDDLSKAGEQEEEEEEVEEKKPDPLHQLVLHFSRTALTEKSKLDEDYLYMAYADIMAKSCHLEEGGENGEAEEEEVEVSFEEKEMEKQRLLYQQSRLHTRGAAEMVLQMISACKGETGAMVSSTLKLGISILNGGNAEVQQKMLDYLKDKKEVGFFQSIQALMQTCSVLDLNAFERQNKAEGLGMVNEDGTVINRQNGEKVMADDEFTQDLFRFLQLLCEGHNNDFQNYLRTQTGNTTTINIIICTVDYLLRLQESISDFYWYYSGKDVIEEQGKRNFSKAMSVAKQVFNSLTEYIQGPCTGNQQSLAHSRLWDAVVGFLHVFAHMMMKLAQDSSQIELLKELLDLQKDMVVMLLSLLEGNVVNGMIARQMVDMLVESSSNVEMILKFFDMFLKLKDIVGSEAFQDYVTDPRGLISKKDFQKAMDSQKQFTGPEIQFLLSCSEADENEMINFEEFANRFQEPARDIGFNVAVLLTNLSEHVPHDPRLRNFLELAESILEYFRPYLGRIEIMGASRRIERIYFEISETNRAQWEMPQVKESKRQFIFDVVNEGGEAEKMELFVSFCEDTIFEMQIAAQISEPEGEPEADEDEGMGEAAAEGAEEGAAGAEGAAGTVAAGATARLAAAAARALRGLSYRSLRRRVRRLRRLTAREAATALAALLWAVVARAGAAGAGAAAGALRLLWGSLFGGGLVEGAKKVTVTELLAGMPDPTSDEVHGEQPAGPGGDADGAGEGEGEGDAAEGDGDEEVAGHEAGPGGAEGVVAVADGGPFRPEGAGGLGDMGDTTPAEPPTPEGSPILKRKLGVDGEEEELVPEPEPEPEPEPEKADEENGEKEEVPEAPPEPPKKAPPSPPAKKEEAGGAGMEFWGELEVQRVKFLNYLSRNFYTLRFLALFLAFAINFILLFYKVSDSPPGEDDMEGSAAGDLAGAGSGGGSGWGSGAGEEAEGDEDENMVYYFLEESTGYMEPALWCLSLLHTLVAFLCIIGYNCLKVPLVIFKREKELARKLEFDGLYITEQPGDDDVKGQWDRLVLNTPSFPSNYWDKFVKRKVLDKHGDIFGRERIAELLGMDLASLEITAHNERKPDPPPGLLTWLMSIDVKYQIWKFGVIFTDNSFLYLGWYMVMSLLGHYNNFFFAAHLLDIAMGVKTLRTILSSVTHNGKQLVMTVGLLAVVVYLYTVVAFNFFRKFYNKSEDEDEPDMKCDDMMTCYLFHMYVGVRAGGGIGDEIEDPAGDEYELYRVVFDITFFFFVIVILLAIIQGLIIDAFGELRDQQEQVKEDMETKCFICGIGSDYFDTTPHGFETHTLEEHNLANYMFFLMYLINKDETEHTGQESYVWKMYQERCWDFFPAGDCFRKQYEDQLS

[6] = tested on: C2C12 skeletal muscle myotubes; assay: Live-cell Ca^2+ imaging; format: cell-based, Mouse
[7] = Atazanavir 1.56 μM cis, 3.3 μM cis Ca^2+
[8] = Atazanavir 3.12 μM cis, 3.3 μM cis Ca^2+
[9] = Atazanavir 6.78 μM cis, 3.3 μM cis Ca^2+
[10] = Atazanavir 20.00 μM cis, 3.3 μM cis Ca^2+
[11] = Atazanavir 30.00 μM cis, 3.3 μM cis Ca^2+
[12] = Atazanavir […] cis, 3.3 μM cis Ca^2+
[13] = up to five minutes after addition
[14] = Ritonavir 2.50 μM cis, 3.0 μM cis Ca^2+
[15] = Ritonavir 5.00 μM cis, 3.0 μM cis Ca^2+
[16] = Ritonavir 12.50 μM cis, 3.0 μM cis Ca^2+
[17] = Ritonavir 20.00 μM cis, 3.0 μM cis Ca^2+
[18] = Ritonavir 31.20 μM cis, 3.0 μM cis Ca^2+
[19] = Ritonavir […] cis, 3.0 μM cis Ca^2+
[20] = 3 μM, antiretroviral-naïve C2C12 cells

Sequence of RyR1 (P11716 whole entry): as above

For COC(=O)N[C@H](C(=O)N[C@@H](Cc1ccccc1)[C@@H](O)CN(Cc1ccc(-c2ccccn2)cc1)NC(=O)[C@@H](NC(=O)OC)C(C)(C)C)C(C)(C)C [ATV, atazanavir], the “plasma Cmax” value ([1]; 300 mg/day ATV) is listed as ~ 2.2 μg/ml, the Cmax ([1]; 300 mg/day ATV) is listed as about 3 µM and the Cmax ([1]; ATV co-administered with RTV (100 mg/day)) is listed as about 6 µM. For the same molecule, the “effect on ATPase activity of SERCA1” value (SERCA1 [2]; 0 – 20 μM, 20 min at 37°C, with and without A23187) was “biphasic”, the “effect on ATPase activity of SERCA1” value (SERCA1 [2]; concentrations higher than 5.0 μM, with and without A23187) was “decreased the ATPase activity” and the “effect on ATPase activity of SERCA1” value (SERCA1 [2]; concentrations of 0.25 and 5.0 μM, with and without A23187) was “potentiated”. For the same molecule, the “increase in Po of RyR1” value (RyR1; 1.6 μM cis ATV, within 15 sec, 3.3 μM cis Ca^2+) was 40%, the “effect on conductance of RyR1” value (RyR1; 3.2 μM cis ATV) was “did not alter the conductance” and the “Po of RyR1” value (RyR1; 6.8 μM cis ATV) was 0.92 ± 0.10. The “conductance of reduced conductance state R’1” value (RyR1; 6.8 μM cis ATV) was 532 ± 34 pS, the “current amplitude of RyR1 (reduced conductance state R’1)” value (RyR1; 6.8 μM cis ATV) was 74 % of maximum and the “dwell time in the opened state” value (RyR1; 6.8 μM cis ATV, ± 30 mV holding potential) was over 25 ms. For the same molecule, the “current amplitude of RyR1 (R’1)” value (RyR1; 20.0 μM and 30.0 μM cis ATV) was 74 % of maximum, the “Closed- maximally opened transitions (Hz)” value (RyR1; [7]) was 789 ± 25 Hz and the “Dwell time closed state” value (RyR1; [7]) was 1.97 ± 0.03 ms. The “Dwell time open state” value (RyR1; [7]) was 0.66 ± 0.02 ms, the “Po (+30 mV)” value (RyR1; [7]) was 0.14 ± 0.01 and the “Closed- maximally opened transitions (Hz)” value (RyR1; [8]) was 1102 ±22 Hz. For the same molecule, the “Dwell time closed state” value (RyR1; [8]) was 0.62 ± 0.03 ms, the “Dwell time open state” value (RyR1; [8]) was 2.83 ± 0.08 ms and the “Po (+30 mV)” value (RyR1; [8]) was 0.56 ± 0.03. For the same molecule, the “Closed- maximally opened transitions (Hz)” value (RyR1; [9]) was 206 ± 30 Hz, the “Dwell time closed state” value (RyR1; [9]) was 0.55 ± 0.07 ms and the “Dwell time open state” value (RyR1; [9]) was 25.12 ± 1.52 ms. For the same molecule, the “Po (+30 mV)” value (RyR1; [9]) was 0.92 ± 0.10, the “Closed- maximally opened transitions (Hz)” value (RyR1; [10]) was 750 ± 55 Hz and the “Dwell time closed state” value (RyR1; [10]) was 2.22 ± 0.15 ms. The “Dwell time open state” value (RyR1; [10]) was 1.44 ± 0.05 ms, the “Po (+30 mV)” value (RyR1; [10]) was 0.60 ± 0.04 and the “Closed- maximally opened transitions (Hz)” value (RyR1; [11]) was 142 ±20 Hz. The “Dwell time closed state” value (RyR1; [11]) was 5.65 ± 0.06 ms, the “Dwell time open state” value (RyR1; [11]) was 0.33 ± 0.01 ms and the “Po (+30 mV)” value (RyR1; [11]) was 0.11 ± 0.01. For the same molecule, the “Closed- maximally opened transitions (Hz)” value (RyR1; [12]) was 225 ±16 Hz, the “Dwell time closed state” value (RyR1; [12]) was 0.43 ± 0.05 ms and the “Dwell time open state” value (RyR1; [12]) was 5.70 ± 0.20 ms. The “Po (+30 mV)” value (RyR1; [12]) was 0.82 ± 0.04, the “effect on Po of RyR1 of concentrations lower than 1.6 μM” value (RyR1; [13]) was “did not elicit changes in the Po” and the “fraction dissolved in ethanol/water (1:1)” value [3] was 12.9%. For the same molecule, the “stock concentration in ethanol/water (1:1)” value [3] was 3.2 mM, the “effect on ATP-dependent Ca^2+ transport by SERCA1” value (SERCA1 [4]) was “biphasic” and the “effect on Ca^2+ accumulation via SERCA1” value (SERCA1 [4]; > 5 μM) was “inhibiting”. For the same molecule, the “effect on Ca^2+ accumulation via SERCA1” value (SERCA1 [4]; up to 5.0 μM) was “potentiating”, the EC50 [5] was 14.9 ± 1.4 nM and the IC50 [5] was 6200 ± 800 nM. The Ki [5] was 1600 ± 200 nM, the “maximum percent enhancement of [^3H]ryanodine binding over control” value [5] was 40.5 ± 5.2% and the “concentrations that enhanced [^3H]ryanodine binding to RyR1” value [5] was 1 to 20 nM. For the same molecule, the “Ca^2+ transient in C2C12 cells pretreated with 50 μM ryanodine for 20 min” value [6] was “attenuated the amplitude”, the “diameter of plasma membrane blebs, times larger than that of EFV” value ([6]; 6 μM) was ~ 1.5 × and the “effect on plasma membrane of C2C12 cells” value ([6]; 6 μM) was “blebbing”. For the same molecule, the “rate of Ca^2+ transient rise, times faster than that of EFV” value ([6]; 6 μM) was 7.7 ×, the “rate of decay of the Ca^2+ transient, times faster than that of EFV” value ([6]; 6 μM) was 3 x and the “mean peak amplitude of the Ca^2+ transient” value ([6]; 6 μM, antiretroviral-naïve C2C12 myotubes) was 4.4 ± 0.1 f.u. The “response to a second dose in previously exposed C2C12 cells” value ([6]; second dose 6 μM) was “did not elicit a second Ca^2+ transient”.

With CC(C)c1nc(CN(C)C(=O)N[C@H](C(=O)N[C@@H](Cc2ccccc2)C[C@H](O)[C@H](Cc2ccccc2)NC(=O)OCc2cncs2)C(C)C)cs1 [RTV, ritonavir] the “effect on ATPase activity of SERCA1” value (SERCA1 [2]; 0.25 to 20 μM, presence or absence of A23187) was “dose-dependently decreased”, the “increase in Po of RyR1” value (RyR1; 720 nM cis RTV, 3.0 μM cis Ca^2+) was “three-fold” and the “Po of RyR1” value (RyR1; 3.2 μM cis RTV) was 0.15 ± 0.02. For the same molecule, the “conductance of reduced conductance state R’2” value (RyR1; 3.2 μM cis RTV) was 599 ± 24 pS, the “current amplitude of RyR1 (R’2)” value (RyR1; 3.2 μM cis RTV) was 84 % of maximum and the “reduction of current amplitude of RyR1” value (RyR1; 3.2 μM cis RTV) was 16%. For the same molecule, the “current amplitude of RyR1 (R’2)” value (RyR1; 31.2 μM cis RTV) was 84 % of maximum, the “Po of RyR1” value (RyR1; 31.2 μM cis RTV, +30 mV) was 0.92 ± 0.01 and the “Close - maximally opened transitions (Hz)” value (RyR1; [14]) was 998 ± 89 Hz. For the same molecule, the “Dwell time closed state” value (RyR1; [14]) was 1.01 ± 0.22 ms, the “Dwell time open state” value (RyR1; [14]) was 0.68 ± 0.06 ms and the “Po (+30 mV)” value (RyR1; [14]) was 0.29 ± 0.03. The “Close - maximally opened transitions (Hz)” value (RyR1; [15]) was 762 ± 45 Hz, the “Dwell time open state” value (RyR1; [15]) was 1.22 ± 0.15 ms and the “Po (+30 mV)” value (RyR1; [15]) was 0.07 ± 0.04. For the same molecule, the “Close - maximally opened transitions (Hz)” value (RyR1; [16]) was 828 ± 40 Hz, the “Dwell time open state” value (RyR1; [16]) was 1.64 ± 0.03 ms and the “Po (+30 mV)” value (RyR1; [16]) was 0.11 ± 0.03. For the same molecule, the “Close - maximally opened transitions (Hz)” value (RyR1; [17]) was 848 ± 37 Hz, the “Dwell time closed state” value (RyR1; [17]) was 10.57 ± 1.24 ms and the “Dwell time open state” value (RyR1; [17]) was 1.01 ± 0.06 ms. The “Po (+30 mV)” value (RyR1; [17]) was 0.11 ± 0.02, the “Close - maximally opened transitions (Hz)” value (RyR1; [18]) was 880 ± 30 Hz and the “Dwell time closed state” value (RyR1; [18]) was 0.72 ± 0.09 ms. For the same molecule, the “Dwell time open state” value (RyR1; [18]) was 1.13 ± 0.09 ms, the “Po (+30 mV)” value (RyR1; [18]) was 0.92 ± 0.01 and the “Close - maximally opened transitions (Hz)” value (RyR1; [19]) was 773 ± 47 Hz. For the same molecule, the “Dwell time closed state” value (RyR1; [19]) was 4.25 ± 0.11 ms, the “Dwell time open state” value (RyR1; [19]) was 0.35 ± 0.02 ms and the “Po (+30 mV)” value (RyR1; [19]) was 0.07 ± 0.01. For the same molecule, the “effect on Po of RyR1 of concentrations lower than 720 nM” value (RyR1; [13]) was “did not elicit changes in the Po”, the “fraction dissolved in ethanol/water (1:1)” value [3] was 1.5% and the “stock concentration in ethanol/water (1:1)” value [3] was 0.39 mM. For the same molecule, the “effect on ATP-dependent Ca^2+ transport by SERCA1” value (SERCA1 [4]) was “dose-dependently inhibited”, the “maximum percent enhancement of [^3H]ryanodine binding over control” value [5] was 62.3 ± 6.2% and the “concentrations that enhanced [^3H]ryanodine binding to RyR1” value [5] was 1 to 60 nM. The “Ca^2+ transient in C2C12 cells pretreated with 50 μM ryanodine for 20 min” value [6] was “attenuated the amplitude”, the “duration of the Ca^2+ transient” value ([6]; 3 μM) was “about 20 sec” and the “effect on plasma membrane of C2C12 cells” value ([6]; 3 μM) was “blebbing”. The “rate of decay of the Ca^2+ transient, times faster than that of EFV” value ([6]; 3 μM) was 3 x, the “mean rate of Ca^2+ rise” value [6, 20] was 0.54 ± 0.06 f.u./sec and the “peak amplitude of the Ca^2+ transient” value [6, 20] was 4.3 ± 0.2 f.u. For the same molecule, the “response to a second dose in previously exposed C2C12 cells” value ([6]; second dose 3 μM) was “triggered a second Ca^2+ transient”.
